Data on seven compounds can be found in paper PMC11396751, “Design, Synthesis, and Anticancer Activity of Novel Enmein-Type Diterpenoid Derivatives Targeting the PI3K/Akt/mTOR Signaling Pathway” (Molecules, 2024).

One experiment deals with L-02 cells. Put plainly: MTT anti-proliferative assay, normal L-02 cells. The note with it: Homo sapiens, L02, 48 h, means ± SD of three experiments. Type of experiment: cell-based. The method, then:
(§1) A series of novel enmein-type diterpenoid derivatives, 5a–m, were synthesized by introducing a side chain containing a carbamate moiety at the C-6 position of compound 4. The anticancer activities of 5a–m were tested against three human cancer cell lines and one human normal cell line by MTT assay.
(§2) Human non-small cell lung cancer cell lines (A549), human liver cancer cell lines (HepG2), human breast cancer cell lines (MCF-7), and human normal cell lines (L-02) were purchased from the cell bank of the Chinese Academy of Sciences. All cells were placed in RPMI-1640 medium (added 10% fetal bovine serum, […]) and cultured in an aseptic environment with 5% CO2 at 37 °C.
(§3) All derivatives were evaluated for their anti-proliferative activities against three cancer cell lines and one normal cell line by MTT assay. The cells in the logarithmic growth phase were inoculated into 96-well plates (3 × 10^3 cells/well) and incubated for 48 h in a sterile environment with 5% CO2 at 37 °C to make them attach via cell adhesion; then, the cells were co-incubated with target compounds for 48 h. After that, MTT solution (10 µL/well) was added to the cell culture medium to continue incubation for 4 h, following which the medium was replaced with DMSO (150 µL/well). The absorbance values at 490 nm were determined using an enzyme meter (Safire 2, Tecan, Männedorf, Switzerland) and further converted to half-inhibitory concentration values of these compounds.
A general note: Tetrazolium dyes change colour on reduction, which living cells bring about.

A further experiment relates to MCF-7 cells. The experiment can be described thus: MTT anti-proliferative assay, MCF-7. Type of experiment: cell-based. The note with it: Homo sapiens, MCF7, 48 h, means ± SD of three experiments. As to the method:
as §1, §2, §3

A further experiment relates to A549 cells. The experiment can be described thus: MTT anti-proliferative assay, A549. Type of experiment: cell-based, human. As to conditions: Homo sapiens, A549; MTT, 48 h; means ± SD of three experiments. The method, then:
as §1, §2, §3

A further experiment has as its system HepG2 cells. The experiment can be described thus: MTT anti-proliferative assay, HepG2. Type of experiment: cell-based, human. As to conditions: for IC50: Homo sapiens, HepG2, MTT, 48 h, means ± SD of three experiments; for anticancer activity in words, HepG2: HepG2 cells. The method, then:
as §1, §2, §3

A further experiment relates to HL60. Also on record: method as in PMID 20183309, PMID 26757019, doi:10.1016/j.tetlet.2007.10.133, PMID 19431012. The note with it: Figure 1; cited from earlier work.
The test system of the next experiment is HeLa. On the set-up: method as in PMID 20183309, PMID 26757019, doi:10.1016/j.tetlet.2007.10.133, PMID 19431012. The note with it: Figure 1; cited from earlier work.
In the next experiment the test system is MCF-7. On the set-up: method as in PMID 20183309, PMID 26757019, doi:10.1016/j.tetlet.2007.10.133, PMID 19431012. The note with it: Figure 1; cited from earlier work.
The next experiment relates to A549. On the set-up: method as in PMID 20183309, PMID 26757019, doi:10.1016/j.tetlet.2007.10.133, PMID 19431012. As to conditions: Figure 1; cited from earlier work.

The IC50 is the concentration at which inhibition is half-maximal.

`C=C1C(=O)C23C(=O)OC45CCC(C)(C)C6C(OC(=O)CCC(=O)NCc7ccc(F)cc7)OCC64C2CCC1C3O5` (single isomer, unassigned; ent-6) [Compound 7e, ent-6β,14α-Dihydroxy-(1,7–1,14)-epoxy-7,15-dioxo-6,20-hemiketal-6,7-seco-16-kaurene-6β-yl 4-((4-fluorobenzyl)amino)-4-oxobutanoate]: the IC50 in the experiment with L-02 cells is more than 50 µM; in the experiment on MCF-7 cells it was 9.85 ± 1.53 µM; in the experiment on A549 cells it was 7.12 ± 1.52 µM; in the experiment with HepG2 cells it was 11.6 ± 1.34 µM.
With `C=C1C(=O)C23C(=O)OC45CCC(C)(C)C6C(OC(=O)CCC(=O)NCc7ccc(Cl)cc7)OCC64C2CCC1C3O5` (single isomer, unassigned; ent-6) [Compound 7f, ent-6β,14α-Dihydroxy-(1,7–1,14)-epoxy-7,15-dioxo-6,20-hemiketal-6,7-seco-16-kaurene-6β-yl 4-((4-chlorobenzyl)amino)-4-oxobutanoate], the IC50 is more than 50 µM in the experiment on L-02 cells, 8.2 ± 1.21 µM in the experiment with MCF-7 cells, 7.38 ± 0.96 µM in the experiment on A549 cells and 8.61 ± 1.14 µM with HepG2 cells. For the same compound, the “anticancer activity in words, HepG2” value in the experiment with HepG2 cells was “low micro-molar-level anticancer activities”.
In the same order, the values of `C=C1C(=O)C23C(=O)OC45CCC(C)(C)C6C(OC(=O)CCC(=O)NCc7ccc(Br)cc7)OCC64C2CCC1C3O5` (single isomer, unassigned; ent-6) [Compound 7g, ent-6β,14α-Dihydroxy-(1,7–1,14)-epoxy-7,15-dioxo-6,20-hemiketal-6,7-seco-16-kaurene-6β-yl 4-((4-bromobenzyl)amino)-4-oxobutanoate] are more than 50 µM, 13 ± 1.52 µM, 8.6 ± 2.65 µM, 8.78 ± 1.46 µM and “low micro-molar-level anticancer activities”.
As for `C=C1C(=O)C23CC1CCC2C12COC(O)C1C(C)(C)CCC2OC3=O` (stereo not drawn) [Isodocarpin], the IC50 with HL60 is 0.57 µM; in the experiment on HeLa, 4.01 µM.
Turning to `C=C1C(=O)[C@]23[C@H](O)[C@H]1CC[C@H]2[C@@]12CO[C@]3(O)[C@@H](O)[C@@H]1C(C)(C)CC[C@@H]2O` [Oridonin, reference compound], the IC50 in the experiment with L-02 cells amounted to 23.6 ± 1.65 µM; in the experiment with MCF-7 cells, 18.5 ± 1.37 µM; with A549 cells, 21.1 ± 1.58 µM; in the experiment on HepG2 cells it was 22.6 ± 1.2 µM.
Regarding `C=C1C(=O)[C@]23C[C@H]1C[C@H](O)C2[C@@]12CO[C@@H](OC)C1C(C)(C)CC[C@@H]2OC3=O` (stereo partly drawn) [Rabdosin A], the IC50 was 2.82 µM in the experiment on MCF-7, 2.11 µM in the experiment on HL60 and 3.53 µM with A549.
Take `CC(=O)O[C@H]1C(=O)[C@@]2(C)[C@H]([C@H](OC(=O)c3ccccc3)[C@]3(O)C[C@H](OC(=O)[C@H](O)[C@@H](NC(=O)c4ccccc4)c4ccccc4)C(C)=C1C3(C)C)[C@]1(OC(C)=O)CO[C@@H]1C[C@@H]2O` [Taxol, reference compound]: the IC50 in the experiment on L-02 cells worked out at 8.31 ± 1.82 µM; in the experiment on MCF-7 cells, 5.15 ± 0.8 µM; in the experiment on A549 cells, 4.21 ± 0.73 µM; in the experiment with HepG2 cells, 6.6 ± 1.61 µM.
